Assay results as given in patent publication US11986530B2, “Drug composition for parenteral administration” (THERABIOPHARMA INC., priority 2016, dated 2024).

Experiments:
[1] = system: human hepatocellular carcinoma cell lines (HepG2 cells); settings: compared to free curcumin; cited from earlier work
[2] = system: A549; settings: A549, in vitro; cited from earlier work
[3] = system: colorectal cancer cells derived from adult human colon HCT116; test: Anti-tumor effect by intravenous administration of curcumin conjugates (tumor size, HCT116 transplanted mice); type: in vivo, BALB/cAnNcr j-nu/nu (homo) mice; settings: HCT116 mouse
Text: 1×10^7 or 4×10^6 colorectal cancer cells derived from adult human […] colon HCT116 (ATCC No. CCL-247) were transplanted subcutaneously into the flank of each of the test animals by using a 27 G injection needle.
In this regard, in the control group, mice to which water for injection excluding curcumin monoglucuronide had been administered intravenously were used.
For the tumor size, after each lapse of 0, 4, 7, 11 and 14 days from the start of administration or after each lapse of 0, 4, 7, 11, 14, 18 and 21 days from the start of administration, the length, width and height of the tumor were measured by using a vernier caliper, and the tumor size was calculated by the following equation. Tumor size (mm^3)=length×width×height×0.5 (5) Concentration of Curcumin Conjugates and Free Curcumin in Tumor Tissue

[4] = in vivo; settings: mouse
Experimental: Intravenous administration of a single dose of curcumin monoglucuronide was performed to each of the mice at each dose of 125, 250, 500 and 1000 mg/kg, and the toxicity thereof was evaluated. In this regard, the number of mice in each group was set to be n=5.
As the test animals, 6-week old Slc:ICR mice (male, with a body weight of 27 to 31 g, Japan SLC, Inc.), which had been purchased and acclimated to the environment for around 6 days, was used.
Observation of the state of each of the mice was performed by recording the type, extent, expression time, recovery time, and death (death detection) time of all of the toxic signs observed macroscopically.
Observation was performed at a time immediately after administration, at a time after each lapse of 30 minutes, 1, 2, 4 and 6 hours from the start of administration, and once a day from the day following the date of administration (up to after the lapse of 14 days from the start of administration).
The body weight was measured by using an electronic balance (UW4200S, Shimadzu Corporation) immediately before administration, and after each lapse of 1, 3, 7, 10 and 14 days from the administration.
Blood biochemical test was performed by the following method. That is, mice were fasted for 4 hours or more after the end of the mouse observation period (after the lapse of 14 days from the start of administration), the fasted mice were subjected to laparotomy under anesthesia by intraperitoneal administration of pentobarbital sodium, and the blood was collected from the abdominal aorta (the amount of the blood was 0.6 mL or more). Next, the collected blood was anti-coagulated with heparin sodium, and then the anti-coagulated blood was centrifuged (4° C., 3000 rpm, for 10 minutes) to obtain the plasma, and transaminase (AST and ALT) contained in the plasma was measured.
After the end of the observation period (after the lapse of 14 days from the start of administration), autopsy was performed as follows: blood was collected from each of the mice under anesthesia with pentobarbital sodium; and then the mice were sacrificed by exsanguination by cutting the abdominal aorta and the caudal vena; each of the sacrificed mice was dissected according to a pathological technique; and the cranium, the intrathoracic organs, the intraperitoneal organs, and the tissues thereof were observed macroscopically.

[5] = system: human hepatocellular carcinoma cell lines (HepG2 cells); settings: cited from earlier work
[6] = system: KBM-5; settings: KBM-5, in vitro; cited from earlier work
[7] = system: U266; settings: U266, in vitro; cited from earlier work
[8] = system: β-glucuronidase; settings: 10 μL of 2.81 μg/mL substrate, pH 5.0, 37° C., 1 hour, n=3
Experimental: In this regard, as a control, curcumin monoglucuronide was used for the examination.
In addition, as the curcumin diglucuronide, commercially available curcumin diglucuronide (manufactured by SynInnova Laboratories Inc.) was used.
Next, into the resultant mixture, 0.5 mL of chloroform was added, and the mixture was stirred for 1 minute with a vortex mixer, and then the stirred mixture was treated for 15 minutes by using an ultrasonic generator, and the treated mixture was fractionated into a chloroform layer and a water layer by centrifugation (10,000×g, for 5 minutes, at room temperature). Further, this fractionation process was repeated twice. After that, the chloroform layer was collected, and dried and solidified by distilling off the solvent with a vacuum centrifugal concentrator, and to the dried and solidified matter, 100 μL of 50% (v/v) methanol was added, and then the resultant mixture was centrifuged (10,000×g, for 5 minutes, at room temperature) to collect a supernatant liquid, and the collected supernatant liquid was taken as an enzyme-treated sample.
In 2 μL of the enzyme-treated sample prepared in the above (2), free curcumin was measured by the method described in “b.

[9] = system: Jurkat cells; settings: in vitro; cited from earlier work
[10] = Serum biochemical test (liver and biliary diseases set, 21 items) in tumor-bearing mice; type: in vivo, BALB/cAnNcr j-nu/nu (homo) mice; settings: 30 mg/kg i.v., 14 days from start of administration

For `COc1cc(/C=C/C(O)=C/C(=O)/C=C/c2ccc(O[C@@H]3O[C@H](C(=O)O)[C@@H](O)[C@H](O)[C@H]3O)c(OC)c2)ccc1O` [curcumin monoglucuronide], the “influence on the gene expression” value [1] is given as “the action was extremely low”, the “cell growth inhibitory effect” value [2] is given as “there is no such an effect” and the tumor size ([3]; 30 mg/kg i.v., 0 day from start of administration) is given as 142.9±45.5 mm^3. For the same molecule, the tumor size ([3]; 30 mg/kg i.v., 4 days) was 275.1±88.1 mm^3, the tumor size ([3]; 30 mg/kg i.v., 11 days) was 489.4±147.8 mm^3 and the tumor size ([3]; 30 mg/kg i.v., 14 days) was 581.2±197.4 mm^3. It also gave a tumor size ([3]; 90 mg/kg i.v., 0 day from start of administration) of 17.4±3.2 mm^3, a tumor size ([3]; 90 mg/kg i.v., 4 days) of 23.6±8.4 mm^3 and a tumor size ([3]; 90 mg/kg i.v., 7 days) of 42.6±16.6 mm^3. It also gave a tumor size ([3]; 90 mg/kg i.v., 11 days) of 77.5±28.9 mm^3, a tumor size ([3]; 90 mg/kg i.v., 14 days) of 122.9±42.6 mm^3 and a tumor size ([3]; 90 mg/kg i.v., 18 days) of 204.4±76.2 mm^3. For the same molecule, the tumor size ([3]; 90 mg/kg i.v., 21 days) was 190.2±70.1 mm^3, the “prone position and reduction of locomotor activity, number of mice” value ([4]; male, Slc:ICR) was 5 and the “reduction of locomotor activity, number of mice” value ([4]; male, Slc:ICR) was 5. The LD50 at 14 days ([4]; male, Slc:ICR, iv) was 500 to 1000 mg/kg, the autopsy findings [4] was “no abnormality was found” and the “state of mice by macroscopy” value [4] was “no abnormality was found”. The “cell growth inhibitory effect” value [5] was “the effect was not found”, the “cell growth inhibitory effect” value [6] was “there is no such an effect” and the “cell growth inhibitory effect” value [7] was “there is no such an effect”. The “concentration of the curcumin contained in the enzyme-treated sample” value [8] was 159.1 ± 6.1 ng/mL, the “cell growth inhibitory effect” value [9] was “there is no such an effect” and the “serum biochemical test values (liver and biliary diseases set, 21 items)” value [10] was “no abnormality was found in the test values”.
